Results taken from ChEMBL document CHEMBL4622952, “Synthesis and biological evaluation of Schizandrin derivatives as tubulin polymerization inhibitors” (Bioorg Med Chem Lett, 2020).
Active and inactive are the calls of the source. The rule behind the calls is not given here.

Legend:
[1] = Induction of apoptosis in human RKOP3 cells assessed as necrotic cells at 2 uM measured after 24 hrs by annexinV-FITC/propidium iodide staining based flow cytometry analysis (reference value: 0 %); assay type: functional
[2] = Induction of apoptosis in human RKOP3 cells assessed as live cells at 2 uM measured after 24 hrs by annexinV-FITC/propidium iodide staining based flow cytometry analysis (reference value: 98.19 %); assay type: functional
[3] = tested on: HEK293; assay: Cytotoxicity against human HEK293 cells assessed as reduction in cell viability measured after 48 hrs by MTT assay; assay type: cell-based
[4] = Induction of apoptosis in human RKOP3 cells assessed as early apoptotic cells at 2 uM measured after 24 hrs by annexinV-FITC/propidium iodide staining based flow cytometry analysis (reference value: 1.8 %); assay type: functional
[5] = Induction of apoptosis in human RKOP3 cells assessed as late apoptotic cells at 2 uM measured after 24 hrs by annexinV-FITC/propidium iodide staining based flow cytometry analysis (reference value: 0.01 %); assay type: functional
[6] = tested on: DU-145; assay: Induction of apoptosis in human DU145 cells assessed as live cells at 2.54 uM measured after 24 hrs by annexinV-FITC/propidium iodide staining based flow cytometry analysis (reference value: 97.09 %); assay type: functional
[7] = tested on: DU-145; assay: Antiproliferative activity against human DU145 cells assessed as reduction in cell viability measured after 48 hrs by MTT assay; assay type: functional, cell-based; conditions: for IC50: DU-145, 48 h
[8] = tested on: DU-145; assay: Induction of apoptosis in human DU145 cells assessed as necrotic cells at 2.54 uM measured after 24 hrs by annexinV-FITC/propidium iodide staining based flow cytometry analysis (reference value: 0.52 %); assay type: functional
[9] = (§1) Antiproliferative activity against human RKOP3 cells assessed as reduction in cell viability measured after 48 hrs by MTT assay; assay type: functional, cell-based
[10] = tested on: HeLa; assay: Antiproliferative activity against human HeLa cells assessed as reduction in cell viability measured after 48 hrs by MTT assay; assay type: functional, cell-based
[11] = tested on: DU-145; assay: Induction of apoptosis in human DU145 cells assessed as early apoptotic cells at 2.54 uM measured after 24 hrs by annexinV-FITC/propidium iodide staining based flow cytometry analysis (reference value: 2.34 %); assay type: functional
[12] = tested on: DU-145; assay: Induction of apoptosis in human DU145 cells assessed as late apoptotic cells at 2.54 uM measured after 24 hrs by annexinV-FITC/propidium iodide staining based flow cytometry analysis (reference value: 0.05 %); assay type: functional
[13] = organism: Homo sapiens; assay: as §1; assay type: functional, cell-based
[14] = tested on: A549; assay: Antiproliferative activity against human A549 cells assessed as reduction in cell viability measured after 48 hrs by MTT assay; assay type: functional, cell-based; conditions: for IC50: A549, 48 h
[15] = tested on: DU-145; assay: Induction of apoptosis in human DU145 cells assessed as early apoptotic cells at 1.5 uM measured after 48 hrs by annexinV-FITC/propidium iodide staining based flow cytometry analysis (reference value: 2.34 %); assay type: functional
[16] = target: T1, Tubulin (Homo sapiens) (UniProt P68371+Q9H4B7+P0DPH7+P68366+Q13509+Q71U36+P04350+Q3ZCM7+P07437+P68363+Q9BQE3+Q6PEY2+Q13885+Q9BVA1+Q9BUF5); assay: Inhibition of tubulin polymerization in human HeLa cells assessed as disruption of microtubule network at 10 uM measured after 24 hrs by immunofluorescence assay; assay type: cell-based
[17] = tested on: DU-145; assay: Cell cycle arrest in human DU145 cells assessed as accumulation at G0/G1 phase at 3 uM measured after 24 hrs by propidium iodide staining based flow cytometry analysis (reference value: 58.2 %); assay type: functional
[18] = tested on: DU-145; assay: Induction of apoptosis in human DU145 cells assessed as late apoptotic cells at 3.5 uM measured after 48 hrs by annexinV-FITC/propidium iodide staining based flow cytometry analysis (reference value: 0.05 %); assay type: functional
[19] = tested on: DU-145; assay: Cell cycle arrest in human DU145 cells assessed as accumulation at G0/G1 phase at 1.5 uM measured after 24 hrs by propidium iodide staining based flow cytometry analysis (reference value: 58.2 %); assay type: functional
[20] = tested on: DU-145; assay: Induction of apoptosis in human DU145 cells assessed as necrotic cells at 3.5 uM measured after 48 hrs by annexinV-FITC/propidium iodide staining based flow cytometry analysis (reference value: 0.52 %); assay type: functional
[21] = tested on: DU-145; assay: Induction of apoptosis in human DU145 cells assessed as necrotic cells at 1.5 uM measured after 48 hrs by annexinV-FITC/propidium iodide staining based flow cytometry analysis (reference value: 0.52 %); assay type: functional
[22] = target: T1, Tubulin (Homo sapiens); assay: Inhibition of tubulin […] in human DU145 cells assessed as increase in soluble fraction of tubulin at […] measured after 24 hrs by Western blot analysis; assay type: cell-based; conditions: DU-145
[23] = tested on: DU-145; assay: Induction of apoptosis in human DU145 cells assessed as necrotic cells at 5 uM measured after 48 hrs by annexinV-FITC/propidium iodide staining based flow cytometry analysis (reference value: 0.52 %); assay type: functional
[24] = tested on: DU-145; assay: Cell cycle arrest in human DU145 cells assessed as accumulation at G0/G1 phase at 5 uM measured after 24 hrs by propidium iodide staining based flow cytometry analysis (reference value: 58.2 %); assay type: functional
[25] = tested on: DU-145; assay: Induction of apoptosis in human DU145 cells assessed as live cells at 1.5 uM measured after 48 hrs by annexinV-FITC/propidium iodide staining based flow cytometry analysis (reference value: 97.09 %); assay type: functional
[26] = tested on: DU-145; assay: Induction of apoptosis in human DU145 cells assessed as early apoptotic cells at 5 uM measured after 48 hrs by annexinV-FITC/propidium iodide staining based flow cytometry analysis (reference value: 2.34 %); assay type: functional
[27] = tested on: DU-145; assay: Induction of apoptosis in human DU145 cells assessed as live cells at 5 uM measured after 48 hrs by annexinV-FITC/propidium iodide staining based flow cytometry analysis (reference value: 97.09 %); assay type: functional
[28] = tested on: DU-145; assay: Induction of apoptosis in human DU145 cells assessed as live cells at 3.5 uM measured after 48 hrs by annexinV-FITC/propidium iodide staining based flow cytometry analysis (reference value: 97.09 %); assay type: functional
[29] = tested on: DU-145; assay: Induction of apoptosis in human DU145 cells assessed as early apoptotic cells at 3.5 uM measured after 48 hrs by annexinV-FITC/propidium iodide staining based flow cytometry analysis (reference value: 2.34 %); assay type: functional
[30] = tested on: DU-145; assay: Induction of apoptosis in human DU145 cells assessed as late apoptotic cells at 1.5 uM measured after 48 hrs by annexinV-FITC/propidium iodide staining based flow cytometry analysis (reference value: 0.05 %); assay type: functional
[31] = tested on: DU-145; assay: Induction of apoptosis in human DU145 cells assessed as late apoptotic cells at 5 uM measured after 48 hrs by annexinV-FITC/propidium iodide staining based flow cytometry analysis (reference value: 0.05 %); assay type: functional
[32] = Homo sapiens, HEK293, 48 h, read-out: IC50

For `COc1cccc2c1C(=O)c1c(O)c3c(c(O)c1C2=O)C[C@@](O)(C(=O)CO)C[C@@H]3O[C@H]1C[C@H](N)[C@H](O)[C@H](C)O1` [DOXORUBICIN], which Activity [1] is on record?
The Activity was 0.05%.

And the Activity [2]?
Its Activity is 60.97%.

What about the IC50 ([3]; hek293) of the same compound?
Its IC50 is “Not Active”.

What about the Activity [4] of the same compound?
Its Activity is 37.21%.

What about the Activity [5] of the same compound?
Its Activity is 1.77%.

What about the Activity [6] of the same compound?
Its Activity is 46.09%.

And the IC50 [7]?
Its IC50 is 2.54 µM.

And the Activity [8]?
Its Activity is 0%.

What about the IC50 [9] of the same compound?
The IC50 was 2.23 µM.

What about the IC50 [10] of the same compound?
The IC50 was 1.94 µM.

And the Activity [11]?
The Activity was 46.08%.

And the Activity [12]?
The Activity was 7.83%.

With `COC1=C(OC)C23C(=C/C1=N\OC(=O)c1c(Cl)cc(Cl)cc1Cl)C[C@H](C)[C@@]2(C)Cc1cc(OC)c(OC)c(OC)c13` (stereo partly drawn) as the compound, how does the IC50 [3, 32] read?
Its IC50 is 79.8 µM.

What about the inhibition [7] of the same compound?
Its inhibition is “Dose-dependent effect”.

What about the IC50 [7] of the same compound?
The IC50 was 37.5 µM.

And the inhibition [13]?
The inhibition was “Dose-dependent effect”.

And the IC50 [9]?
The IC50 was 40.7 µM.

What about the IC50 [10] of the same compound?
The IC50 was 50.8 µM.

What about the inhibition [10] of the same compound?
Its inhibition is “Dose-dependent effect”.

And the inhibition [14]?
Its inhibition is “Dose-dependent effect”.

What about the IC50 [14] of the same compound?
Its IC50 is 7.4 µM.

For `CCCCC(=O)O/N=C1\C=C2C[C@H](C)[C@@]3(C)Cc4cc(OC)c(OC)c(OC)c4C23C(OC)=C1OC` (stereo partly drawn), which IC50 [3, 32] is on record?
Its IC50 is 112 µM.

And the inhibition [7]?
Its inhibition is “Dose-dependent effect”.

And the IC50 [7]?
The IC50 was 22.9 µM.

And the inhibition [13]?
Its inhibition is “Dose-dependent effect”.

What about the IC50 [9] of the same compound?
The IC50 was 14.8 µM.

What about the IC50 [10] of the same compound?
Its IC50 is 12.9 µM.

What about the inhibition [10] of the same compound?
Its inhibition is “Dose-dependent effect”.

What about the inhibition [14] of the same compound?
Its inhibition is “Dose-dependent effect”.

What about the IC50 [14] of the same compound?
The IC50 was 6.9 µM.

What does the source list for `CCOC(=O)CCC(=O)O/N=C1\C=C2C[C@H](C)[C@@]3(C)Cc4cc(OC)c(OC)c(OC)c4C23C(OC)=C1OC` (stereo partly drawn)?
IC50 [3, 32]: 85.4 µM; inhibition [7]: Dose-dependent effect; IC50 [7]: 25 µM; inhibition [13]: Dose-dependent effect; IC50 [9]: 22.6 µM; IC50 [10]: 8.37 µM; inhibition [10]: Dose-dependent effect; inhibition [14]: Dose-dependent effect; IC50 [14]: 8.4 µM

With `COc1cc2c(c(OC)c1OC)-c1c(cc(OC)c(OC)c1OC)C[C@](C)(O)[C@@H](C)C2` [SCHIZANDRIN] as the compound, how does the IC50 [3, 32] read?
Its IC50 is 80.5 µM.

What about the inhibition [7] of the same compound?
Its inhibition is “Dose-dependent effect”.

And the IC50 [7]?
Its IC50 is 5.38 µM.

What about the inhibition [13] of the same compound?
The inhibition was “Dose-dependent effect”.

What about the IC50 [9] of the same compound?
The IC50 was 5.36 µM.

What about the IC50 [10] of the same compound?
Its IC50 is 5.06 µM.

And the inhibition [10]?
The inhibition was “Dose-dependent effect”.

What about the inhibition [14] of the same compound?
Its inhibition is “Dose-dependent effect”.

What about the IC50 [14] of the same compound?
The IC50 was 8.5 µM.

What does the source list for `COC1=C(OC)C23C(=C/C1=N\OC(=O)C1CC1)C[C@H](C)[C@@]2(C)Cc1cc(OC)c(OC)c(OC)c13` (stereo partly drawn)?
IC50 [3, 32]: 65.9 µM; inhibition [7]: Dose-dependent effect; IC50 [7]: 50.5 µM; inhibition [13]: Dose-dependent effect; IC50 [9]: 60 µM; IC50 [10]: 15.2 µM; inhibition [10]: Dose-dependent effect; inhibition [14]: Dose-dependent effect; IC50 [14]: 7.8 µM

Which Activity [15] does the source give for `CCC(=O)O/N=C1\C=C2C[C@H](C)[C@@]3(C)Cc4cc(OC)c(OC)c(OC)c4C23C(OC)=C1OC` (stereo partly drawn) here?
The Activity was 23.33%.

And the inhibition [16]?
The inhibition was “Active”.

And the Activity [17]?
The Activity was 66.4%.

What about the Activity [18] of the same compound?
Its Activity is 3.87%.

What about the Activity [19] of the same compound?
Its Activity is 66.97%.

And the Activity [20]?
The Activity was 0.07%.

What about the IC50 [3, 32] of the same compound?
Its IC50 is 65.1 µM.

And the Activity [21]?
The Activity was 0%.

And the inhibition [22]?
The inhibition was “Active”.

And the Activity [23]?
Its Activity is 0.04%.

What about the inhibition [7] of the same compound?
Its inhibition is “Dose-dependent effect”.

And the IC50 [7]?
Its IC50 is 3.42 µM.

And the inhibition [13]?
The inhibition was “Dose-dependent effect”.

And the IC50 [9]?
Its IC50 is 60.5 µM.

And the Activity [24]?
Its Activity is 71.07%.

What about the IC50 [10] of the same compound?
Its IC50 is 45.3 µM.

And the inhibition [10]?
Its inhibition is “Dose-dependent effect”.

What about the Activity [25] of the same compound?
Its Activity is 75.71%.

What about the inhibition [14] of the same compound?
Its inhibition is “Dose-dependent effect”.

What about the IC50 [14] of the same compound?
The IC50 was 6.5 µM.

What about the Activity [26] of the same compound?
The Activity was 29.44%.

What about the Activity [27] of the same compound?
Its Activity is 68.98%.

What about the Activity [28] of the same compound?
Its Activity is 68.5%.

And the Activity [29]?
Its Activity is 27.56%.

What about the Activity [30] of the same compound?
Its Activity is 0.96%.

What about the Activity [31] of the same compound?
The Activity was 1.54%.
